For orientation: IC50 means the concentration needed to halve the response being measured.

Results on 22 compounds are retold here after patent US11040035B2, “3-oxo-2,6-diphenyl-2,3-dihydropyridazine-4-carboxamides” (BAYER PHARMA AKTIENGESELLSCHAFT, priority 2016, dated 2021).

Assay [1] concerns the target T1, AHR (Homo sapiens, UniProt P35869).
T1 sequence (P35869 11-848): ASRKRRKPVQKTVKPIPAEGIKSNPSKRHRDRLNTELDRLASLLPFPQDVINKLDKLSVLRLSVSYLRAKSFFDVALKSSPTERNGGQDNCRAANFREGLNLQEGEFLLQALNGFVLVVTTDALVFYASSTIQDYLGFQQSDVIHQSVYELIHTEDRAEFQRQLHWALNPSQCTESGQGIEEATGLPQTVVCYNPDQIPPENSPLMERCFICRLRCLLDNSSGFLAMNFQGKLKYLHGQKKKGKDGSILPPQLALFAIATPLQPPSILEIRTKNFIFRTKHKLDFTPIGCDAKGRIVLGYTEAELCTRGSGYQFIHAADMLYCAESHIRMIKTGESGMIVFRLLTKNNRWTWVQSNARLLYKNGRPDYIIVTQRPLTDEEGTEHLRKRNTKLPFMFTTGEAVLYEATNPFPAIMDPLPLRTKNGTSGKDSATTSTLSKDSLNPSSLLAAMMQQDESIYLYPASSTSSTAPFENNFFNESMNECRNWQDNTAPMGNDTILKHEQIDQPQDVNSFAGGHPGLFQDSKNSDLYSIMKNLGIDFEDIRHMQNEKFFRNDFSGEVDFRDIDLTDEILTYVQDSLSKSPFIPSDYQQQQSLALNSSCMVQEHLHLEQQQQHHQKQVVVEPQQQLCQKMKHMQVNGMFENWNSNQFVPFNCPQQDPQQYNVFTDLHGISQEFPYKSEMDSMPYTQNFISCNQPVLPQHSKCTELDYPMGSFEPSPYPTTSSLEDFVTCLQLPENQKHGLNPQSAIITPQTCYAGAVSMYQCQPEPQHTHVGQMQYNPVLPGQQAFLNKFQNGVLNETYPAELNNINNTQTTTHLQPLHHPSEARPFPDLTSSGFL
Description: In vitro assay 2: agonism in human cell line (transactivation assay).

The target in assay [2] is T1, AHR. In words: In vitro assay 1: antagonism in human cell line (transactivation assay, kynurenic acid prestimulated). The settings on record: Assay 1: AHR-luc Hum Antagonism IC50 [M], 150 μM kynurenic acid, 20 hours, firefly luciferase.
Description: Transactivation assays were carried out in U87 glioblastoma cells (ATCC) endogenously expressing AHR. In addition the cells were stably transfected with an AHR inducible firefly luciferase reporter gene construct that carried AHR-binding sites (DRE) in its promoter and a renilla reporter gene construct with constitutively active promoter. Kynurenic acid is an endogenous AHR activating ligand and was used to prestimulate test cells prior to testing the antagonistic properties of compounds.
In Vitro Assay 1: Antagonism in Human Cell Line
Cells in medium (tryptophan free RPMI, 1% FCS, 2 mM Glutamine) supplemented with 150 μM kynurenic acid were grown for 20 hours in absence (negative control) or presence of increasing concentrations of test compounds (typical dilutions: 72 pmol/L, 0.25 nmol/L, 0.89 nmol/L; 3.1 nmol/L, 11 nmol/L, 38 nmol/L, 130 nmol/L, 470 nmol/L, 1.6 μmol/L, 5.7 μmol/L and 20 μmol/L in duplicates). As positive inhibition control cells supplemented with 150 μM kynurenic acid were incubated in presence of 5 μM Staurosporin. Normalization was done by positive and negative controls.
Firefly luciferase and Renilla activity was determined by the DualGlo Luciferase Assay System (Promega, #2920).
Where [3] appears, read: Assay 2: AHR-luc Hum Agonism IC50 [M], no kynurenic acid, 20 hours, firefly luciferase.
Where [4] appears, read: read-out: Assay 2: AHR-luc Hum Agonism IC50, no kynurenic acid, 20 hours, firefly luciferase.

Where only a bound is given, the exact number is not on record here.

Consider `O=C(NC(CO)(CO)C(F)(F)F)c1cc(-c2ccc(Cl)cc2)nn(-c2cccc(F)c2)c1=O` [Example 280, 6-(4-Chlorophenyl)-2-(3-fluorophenyl)-3-oxo-N-[1,1,1-trifluoro-3-hydroxy-2-(hydroxymethyl)propan-2-yl]-2,3-dihydropyridazine-4-carboxamide], for which the IC50 in assay [1] (setting [3]) was above 2e-05 M; in assay [2] it was 1.92e-08 M.
On to `O=C(N[C@H]1COC[C@@H]1O)c1cc(-c2ccc(N3CCOCC3)cc2)nn(-c2cccc(F)c2)c1=O` (relative stereo) [Example 378, rel-2-(3-fluorophenyl)-N-[(3R,4S)-4-hydroxytetrahydrofuran-3-yl]-6-[4-(morpholin-4-yl)phenyl]-3-oxo-2,3-dihydropyridazine-4-carboxamide], for which the IC50 in assay [1] (setting [3]) is above 2e-05 M; in assay [2], 2.48e-07 M.
With `N#Cc1cccc(-n2nc(-c3ccc(Cl)cc3)cc(C(=O)NCC(O)C(F)(F)F)c2=O)c1` (single isomer, unassigned) [Example 363, 6-(4-chlorophenyl)-2-(3-cyanophenyl)-3-oxo-N-(3,3,3-trifluoro-2-hydroxypropyl)-2,3-dihydropyridazine-4-carboxamide], the IC50 was above 2e-05 M in assay [1] (setting [3]) and 2.22e-07 M in assay [2].
As to `O=C(NCC(O)C(F)(F)F)c1cc(-c2ccc(Cl)cc2)nn(-c2cccc(Cl)c2)c1=O` (single isomer, unassigned) [Example 64, 2-(3-Chlorophenyl)-6-(4-chlorophenyl)-3-oxo-N-(3,3,3-trifluoro-2-hydroxypropyl)-2,3-dihydropyridazine-4-carboxamide], the 50% inhibitory concentration (IC50) in assay [1] (setting [4]) was above 2e-05 M; in assay [2], 3.66e-07 M.
In the same order, the values of `CC(NC(=O)c1cc(-c2ccc(Cl)cc2)nn(-c2cccc(F)c2)c1=O)C(O)CO` (single isomer, unassigned) [Example 347, 6-(4-chlorophenyl)-N-(3,4-dihydroxybutan-2-yl)-2-(3-fluorophenyl)-3-oxo-2,3-dihydropyridazine-4-carboxamide] are above 2e-05 M and 1.69e-07 M.
For `O=C(N[C@@H]1CCCC[C@@H]1O)c1cc(-c2ccc(Cl)cc2)nn(-c2cccc(F)c2)c1=O` (single isomer, unassigned) [Example 105, 6-(4-Chlorophenyl)-2-(3-fluorophenyl)-N-(cis-2-hydroxycyclohexyl)-3-oxo-2,3-dihydropyridazine-4-carboxamide] the same measures were above 2e-05 M and 1.51e-07 M.
For the compound `O=C(NCC(O)C(F)(F)F)c1cc(-c2ccc(Cl)cc2)nn(-c2cccc(Cl)c2)c1=O` (single isomer, unassigned) [Example 63, 2-(3-Chlorophenyl)-6-(4-chlorophenyl)-3-oxo-N-(3,3,3-trifluoro-2-hydroxypropyl)-2,3-dihydropyridazine-4-carboxamide], the IC50 in assay [1] (setting [3]) is above 2e-05 M; in assay [2] it was 8.99e-08 M.
Turning to `CC(CCO)NC(=O)c1cc(-c2ccc(Cl)cc2)nn(-c2cccc(F)c2)c1=O` (racemic) [Example 206, 6-(4-Chlorophenyl)-2-(3-fluorophenyl)-N-[(2RS)-4-hydroxybutan-2-yl]-3-oxo-2,3-dihydropyridazine-4-carboxamide], the values for the half-maximal inhibitory concentration (IC50) in assay [1] (setting [3]) and in assay [2] were above 2e-05 M and 6.25e-08 M, respectively.
Take `O=C(NCC(O)C(F)(F)F)c1cc(-c2ccc(C(F)(F)F)cc2)nn(-c2cccc(F)c2)c1=O` (racemic) [Example 242, 2-(3-Fluorophenyl)-3-oxo-N-[(2RS)-3,3,3-trifluoro-2-hydroxypropyl]-6-[4-(trifluoromethyl)phenyl]-2,3-dihydropyridazine-4-carboxamide]: the values for the concentration for half-maximal inhibition (IC50) in assay [1] (setting [3]) and in assay [2] were 1.18e-05 M and above 2e-05 M, respectively.
With `O=C(NC(CO)Cc1ccccn1)c1cc(-c2ccc(Cl)cc2)nn(-c2cccc(F)c2)c1=O` (racemic) [Example 333, 6-(4-chlorophenyl)-2-(3-fluorophenyl)-N-[(2RS)-1-hydroxy-3-(pyridin-2-yl)propan-2-yl]-3-oxo-2,3-dihydropyridazine-4-carboxamide], the IC50 is above 2e-05 M in assay [1] (setting [3]) and 1.34e-07 M in assay [2].
`O=C(NCC(O)C(F)(F)F)c1cc(-c2ccc(Cl)cc2)nn(-c2cc(F)cc(F)c2)c1=O` (single isomer, unassigned) [Example 46, 6-(4-Chlorophenyl)-2-(3,5-difluorophenyl)-3-oxo-N-(3,3,3-trifluoro-2-hydroxypropyl)-2,3-dihydropyridazine-4-carboxamide]: the IC50 in assay [1] (setting [4]) is above 2e-05 M; in assay [2], 5.64e-08 M.
With `Cc1ccc(-c2cc(C(=O)NCC(O)C(C)C)c(=O)n(-c3cccc(F)c3)n2)cc1` (centres unmarked) [Example 10, 2-(3-Fluorophenyl)-N-(2-hydroxy-3-methylbutyl)-6-(4-methylphenyl)-3-oxo-2,3-dihydropyridazine-4-carboxamide], the IC50 was above 2e-05 M in assay [1] (setting [3]) and 1.2e-07 M in assay [2].
With `O=C(NC(CO)C1CCOC1)c1cc(-c2ccc(Cl)cc2)nn(-c2cccc(F)c2)c1=O` (single isomer, unassigned) [Example 41, 6-(4-Chlorophenyl)-2-(3-fluorophenyl)-N-[2-hydroxy-1-(tetrahydrofuran-3-yl)ethyl]-3-oxo-2,3-dihydropyridazine-4-carboxamide], the values for the 50% inhibitory concentration (IC50) in assay [1] (setting [4]) and in assay [2] were above 2e-05 M and 2.15e-07 M, respectively.
With `O=C(NCC(O)C(F)(F)F)c1cc(-c2ccc(Cl)cc2)nn(-c2cc(Cl)cc(Cl)c2)c1=O` (centres unmarked) [Example 311, 6-(4-Chlorophenyl)-2-(3,5-dichlorophenyl)-3-oxo-N-(3,3,3-trifluoro-2-hydroxypropyl)-2,3-dihydropyridazine-4-carboxamide], the concentration for half-maximal inhibition (IC50) in assay [1] (setting [3]) was above 2e-05 M; in assay [2], 6.6e-07 M.
As to `CC(O)CCNC(=O)c1cc(-c2ccc(Cl)cc2)nn(-c2cccc(F)c2)c1=O` (racemic) [Example 203, 6-(4-Chlorophenyl)-2-(3-fluorophenyl)-N-[(3RS)-3-hydroxybutyl]-3-oxo-2,3-dihydropyridazine-4-carboxamide], the results for the IC50 in assay [1] (setting [3]) and in assay [2] were above 2e-05 M and 2.13e-07 M, respectively.
For `CC[C@@H](CO)NC(=O)c1cc(-c2ccc(OC(F)F)cc2)nn(-c2cccc(F)c2)c1=O` [Example 137, 6-[4-(Difluoromethoxy)phenyl]-2-(3-fluorophenyl)-N-[(2S)-1-hydroxybutan-2-yl]-3-oxo-2,3-dihydropyridazine-4-carboxamide] the same measures were above 2e-05 M and 4.99e-08 M.
Regarding `O=C(NC(CO)C1CC1)c1cc(-c2ccc(C(F)(F)F)cc2)nn(-c2cccc(F)c2)c1=O` (single isomer, unassigned; (-)) [Example 351, (−)-N-(1-cyclopropyl-2-hydroxyethyl)-2-(3-fluorophenyl)-3-oxo-6-[4-(trifluoromethyl)phenyl]-2,3-dihydropyridazine-4-carboxamide], the figures for the IC50 in assay [1] (setting [3]) and in assay [2] were above 2e-05 M and 4.84e-09 M, respectively.
In the same order, the values of `CC(C)[C@@H](CO)NC(=O)c1cc(-c2ccc(Cl)cc2)nn(-c2ccccc2)c1=O` [Example 75, 6-(4-chlorophenyl)-N-[(2S)-1-hydroxy-3-methylbutan-2-yl]-3-oxo-2-phenyl-2,3-dihydropyridazine-4-carboxamide] are above 2e-05 M and 3.45e-08 M.
For `O=C(NCCC1(O)CCCCC1)c1cc(-c2ccc(Cl)cc2)nn(-c2cccc(F)c2)c1=O` [Example 320, 6-(4-chlorophenyl)-2-(3-fluorophenyl)-N-[2-(1-hydroxycyclohexyl)ethyl]-3-oxo-2,3-dihydropyridazine-4-carboxamide] the same measures were above 2e-05 M and 3.62e-07 M.
In the same order, the values of `O=C(N[C@H]1CC[C@@H]1O)c1cc(-c2ccc(Cl)cc2)nn(-c2cccc(F)c2)c1=O` (single isomer, unassigned) [Example 335, (−)-6-(4-chlorophenyl)-2-(3-fluorophenyl)-N-(trans-2-hydroxycyclobutyl)-3-oxo-2,3-dihydropyridazine-4-carboxamide] are above 2e-05 M and 4.05e-07 M.
As to `CC(CO)CNC(=O)c1cc(-c2ccc(Cl)cc2)nn(-c2cccc(F)c2)c1=O` (single isomer, unassigned; (-)) [Example 202, (−)-6-(4-Chlorophenyl)-2-(3-fluorophenyl)-N-(3-hydroxy-2-methylpropyl)-3-oxo-2,3-dihydropyridazine-4-carboxamide], the IC50 is above 2e-05 M in assay [1] (setting [4]) and 1.02e-07 M in assay [2].
As to `Cc1ccc(-c2cc(C(=O)N[C@@H](C)CO)c(=O)n(-c3cccc(F)c3)n2)cc1` [Example 8, 2-(3-Fluorophenyl)-N-[(2S)-1-hydroxypropan-2-yl]-6-(4-methylphenyl)-3-oxo-2,3-dihydropyridazine-4-carboxamide], the results for the IC50 in assay [1] (setting [3]) and in assay [2] were above 2e-05 M and 3.61e-08 M, respectively.
